According to PubChem BioAssay (NCI):
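Assay format: 96-well plates, 48-hour exposure. Definition used: TGI = concentration required for complete inhibition of growth.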

Assays:
Experiment in all cases: growth of human tumour cells (NCI), 48 h
786-0 renal = tested on: 786-0 renal
A498 renal = tested on: A498 renal
A549 NSCLC = tested on: A549 NSCLC
ACHN renal = tested on: ACHN renal
CAKI-1 renal = tested on: CAKI-1 renal
CCRF-CEM leukemia = tested on: CCRF-CEM leukemia
COLO 205 colon = tested on: COLO 205 colon
DLD-1 colon = tested on: DLD-1 colon
DMS 114 small cell lung = tested on: DMS 114 small cell lung
HCT-116 colon = tested on: HCT-116 colon
HCT-15 colon = tested on: HCT-15 colon
HL-60(TB) leukemia = tested on: HL-60(TB) leukemia
HOP-18 NSCLC = tested on: HOP-18 NSCLC
HOP-62 NSCLC = tested on: HOP-62 NSCLC
HOP-92 NSCLC = tested on: HOP-92 NSCLC
HT29 colon = tested on: HT29 colon
IGROV1 ovarian = tested on: IGROV1 ovarian
K-562 leukemia = tested on: K-562 leukemia
KM12 colon = tested on: KM12 colon
KM20L2 colon = tested on: KM20L2 colon
LOX IMVI melanoma = tested on: LOX IMVI melanoma
LXFL 529 NSCLC = tested on: LXFL 529 NSCLC
M14 melanoma = tested on: M14 melanoma
M19-MEL melanoma = tested on: M19-MEL melanoma
MALME-3M melanoma = tested on: MALME-3M melanoma
MOLT-4 leukemia = tested on: MOLT-4 leukemia
NCI-H226 lung = tested on: NCI-H226 lung
NCI-H23 lung = tested on: NCI-H23 lung
NCI-H460 lung = tested on: NCI-H460 lung
NCI-H522 lung = tested on: NCI-H522 lung
OVCAR-3 ovarian = tested on: OVCAR-3 ovarian
OVCAR-4 ovarian = tested on: OVCAR-4 ovarian
OVCAR-5 ovarian = tested on: OVCAR-5 ovarian
OVCAR-8 ovarian = tested on: OVCAR-8 ovarian
RPMI-8226 leukemia = tested on: RPMI-8226 leukemia
SF-268 CNS = tested on: SF-268 CNS
SF-295 CNS = tested on: SF-295 CNS
SF-539 CNS = tested on: SF-539 CNS
SK-MEL-2 melanoma = tested on: SK-MEL-2 melanoma
SK-MEL-28 melanoma = tested on: SK-MEL-28 melanoma
SK-MEL-5 melanoma = tested on: SK-MEL-5 melanoma
SK-OV-3 ovarian = tested on: SK-OV-3 ovarian
SN12C renal = tested on: SN12C renal
SNB-19 CNS = tested on: SNB-19 CNS
SNB-78 CNS = tested on: SNB-78 CNS
SR leukemia = tested on: SR leukemia
SW-620 colon = tested on: SW-620 colon
TK-10 renal = tested on: TK-10 renal
U251 CNS = tested on: U251 CNS
UACC-257 melanoma = tested on: UACC-257 melanoma
UACC-62 melanoma = tested on: UACC-62 melanoma
UO-31 renal = tested on: UO-31 renal

How did the TGI (786-0 renal) turn out when `CCN(CC)CCNc1ccc2ncn3c4ccccc4c(=O)c1c23` was run?
Its TGI is 15.4 µM.

And the TGI (A498 renal)?
The TGI was 20.6 µM.

And the TGI (A549 NSCLC)?
The TGI was 10.2 µM.

And the TGI (ACHN renal)?
The TGI was 12.2 µM.

And the TGI (CAKI-1 renal)?
Its TGI is 6.73 µM.

What about the TGI (CCRF-CEM leukemia) of the same compound?
Its TGI is > 100 µM.

And the TGI (COLO 205 colon)?
The TGI was 9.78 µM.

And the TGI (DLD-1 colon)?
Its TGI is 18.9 µM.

What about the TGI (DMS 114 small cell lung) of the same compound?
The TGI was 17.5 µM.

What about the TGI (HCT-116 colon) of the same compound?
Its TGI is 12.8 µM.

And the TGI (HCT-15 colon)?
Its TGI is 16 µM.

What about the TGI (HL-60(TB) leukemia) of the same compound?
Its TGI is > 100 µM.

And the TGI (HOP-18 NSCLC)?
The TGI was 37.4 µM.

And the TGI (HOP-62 NSCLC)?
The TGI was 21.6 µM.

And the TGI (HOP-92 NSCLC)?
The TGI was 10.4 µM.

And the TGI (HT29 colon)?
The TGI was 11 µM.

What about the TGI (IGROV1 ovarian) of the same compound?
The TGI was 15.7 µM.

What about the TGI (K-562 leukemia) of the same compound?
The TGI was > 100 µM.

And the TGI (KM12 colon)?
The TGI was 17.6 µM.

And the TGI (KM20L2 colon)?
The TGI was 17.9 µM.

What about the TGI (LOX IMVI melanoma) of the same compound?
The TGI was 3.73 µM.

What about the TGI (LXFL 529 NSCLC) of the same compound?
The TGI was 18.3 µM.

What about the TGI (M14 melanoma) of the same compound?
The TGI was 16.8 µM.

What about the TGI (M19-MEL melanoma) of the same compound?
Its TGI is 13.9 µM.

And the TGI (MALME-3M melanoma)?
The TGI was 15.1 µM.

What about the TGI (MOLT-4 leukemia) of the same compound?
The TGI was > 100 µM.

And the TGI (NCI-H226 lung)?
The TGI was 7.67 µM.

What about the TGI (NCI-H23 lung) of the same compound?
The TGI was 19.8 µM.

And the TGI (NCI-H460 lung)?
The TGI was 8.98 µM.

And the TGI (NCI-H522 lung)?
The TGI was 12.3 µM.

And the TGI (OVCAR-3 ovarian)?
The TGI was 49.7 µM.

What about the TGI (OVCAR-4 ovarian) of the same compound?
Its TGI is 9.53 µM.

What about the TGI (OVCAR-5 ovarian) of the same compound?
The TGI was 34.1 µM.

What about the TGI (OVCAR-8 ovarian) of the same compound?
Its TGI is 13.3 µM.

And the TGI (RPMI-8226 leukemia)?
The TGI was > 100 µM.

And the TGI (SF-268 CNS)?
The TGI was 18.7 µM.

And the TGI (SF-295 CNS)?
Its TGI is 14.5 µM.

What about the TGI (SF-539 CNS) of the same compound?
Its TGI is 18 µM.

And the TGI (SK-MEL-2 melanoma)?
The TGI was 16.3 µM.

What about the TGI (SK-MEL-28 melanoma) of the same compound?
Its TGI is 16.4 µM.

What about the TGI (SK-MEL-5 melanoma) of the same compound?
The TGI was 13.3 µM.

What about the TGI (SK-OV-3 ovarian) of the same compound?
The TGI was 14.3 µM.

And the TGI (SN12C renal)?
Its TGI is > 100 µM.

And the TGI (SNB-19 CNS)?
The TGI was 32 µM.

What about the TGI (SNB-78 CNS) of the same compound?
Its TGI is 18.9 µM.

And the TGI (SR leukemia)?
Its TGI is > 100 µM.

And the TGI (SW-620 colon)?
The TGI was 16 µM.

What about the TGI (TK-10 renal) of the same compound?
The TGI was 79.9 µM.

And the TGI (U251 CNS)?
Its TGI is 17.5 µM.

What about the TGI (UACC-257 melanoma) of the same compound?
The TGI was 15.1 µM.

What about the TGI (UACC-62 melanoma) of the same compound?
The TGI was 14.6 µM.

What about the TGI (UO-31 renal) of the same compound?
Its TGI is 12.2 µM.
